In paper PMC6423129, “Activity and structural analysis of GRL-117C: a novel small molecule CCR5 inhibitor active against R5-tropic HIV-1s” (Scientific Reports, 2019):

Legend:
Assay type in all cases: cell-based
R5-HIV-1Ba-L = experiment: MAGI assay using MAGI/CCR5 cells and R5-HIV-1Ba-L; settings: Human immunodeficiency virus 1, BAL, Ba-L (MAGI)
Experimental: (§1) MAGI-CCR5 cells[18] were maintained in DMEM supplemented with 10% fetal calf serum (FCS: Gemini Bio-Products, West Sacramento, CA), 200 μg/ml G418, 100 μg/ml hygromycin B, and 100 μg/ml zeomycin. The Chinese hamster ovary (CHO) cells expressing CCR5[19] were maintained in Ham’s F-12 medium (GIBCO-BRL, Rockville, MD) supplemented with 10% FCS, 50 U/ml penicillin, and 50 μg/ml streptomycin in the presence of 5 μg/ml blasticidin S hydrochloride. TZM-bl cells were obtained from the NIH AIDS Reagent Program, and were cultured in DMEM with 10% FCS. Peripheral blood mononuclear cells (PBMCs) were isolated from buffy coats of HIV-1 seronegative individuals, and were activated with 10 μg/ml phytohemagglutinin (PHA) prior to use[16]. A laboratory wild-type R5-HIV-1 strain (HIV-1Ba-L)[37] was employed for drug susceptibility assays. AD101 (experimental CCR5 inhibitor) and VVC-resistant HIV clones[7],[8] were provided by Dr. John P. Moore of Cornell University for this study. The clones were propagated with activated PBMCs, and were used for the assays. A clinical HIV-1 strain, HIV-1KP-5pc, and an MVC-resistant isolate, HIV-1KP-5mvcR, were prepared and used for antiviral assays, as previously described[10],[38]. The following reagents (plasmids) for T/F HIV-1 viruses[22],[24] were obtained through the NIH AIDS Reagent Program, Division of AIDS, NIAID, NIH: pCH040.c/2625 (cat# 11740), pCH106.c/2633 (cat# 11743), pTHRO.c/2626 (cat# 11745), and pCH058.c/2960 (cat# 11856), from Dr. John Kappes and Dr. Christina Ochsenbauer.
(§2) Antiviral assays using PHA-PBMCs (p24 assay) were conducted as previously reported[16],[38]. In brief, PHA-PBMCs (1 × 10^6/ml) were exposed to 50 TCID50 of HIV-1Ba-L or drug-resistant HIV-1 infectious clones in the presence or absence of various concentrations of drugs; 10-fold serial dilutions were performed in 96-well microculture plates. The amount of p24 antigens produced by the cells was determined on day 7 in the culture via a commercially available ELISA kit (PerkinElmer). The p24 production level in drug-free control cell cultures was used as the reference. […] Antiviral assays using MAGI-CCR5 cells (MAGI assay) were conducted as previously reported[16],[39]. Single-round virus infection assays using TZM-bl cells infected with R5-HIV-1s (HIV-1YU2, HIV-1KP-5pc, and HIV-1KP-5mvcR)[10] were also conducted as previously described.

R5-HIV-1BaL = experiment: p24 assay using PBMCs and R5-HIV-1BaL; settings: Human immunodeficiency virus 1, BAL, PBMC, 168 h, Ba-L (PBMCs), day 7
Experimental: as §1, §2

CC1/85 cl.7 = experiment: Anti-HIV-1 assay, drug-naive clinical strain CC1/85 cl.7; settings: Human immunodeficiency virus 1
Experimental: as §1, §2

pCH040.c/2625 = experiment: MAGI assay, T/F HIV-1 clone pCH040.c/2625; settings: Human immunodeficiency virus 1, MAGI
From the text: (§3) We also examined the activity of GRL-compounds against Transmitter/founder (T/F) HIV-1 viruses. T/F viruses are involved in the initial infection. It is considered that T/F viruses virtually always use CCR5 rather than CXCR4 and infect T cells but not macrophages because […] of CD4 is needed to mediate virus entry for the initial transmission[20]–[24]. […] We obtained four HIV-1 T/F infectious clones. We determined the antiviral activity of GRL-117C, GRL-10007C and GRL-10018C on these HIV-1 clones using MAGI assay.
as §1, with “A clinical HIV-1 strain, HIV-1KP-5pc, and an MVC-resistant isolate, HIV-1KP-5mvcR, were prepared and used for antiviral assays, as previously described[10],[38].” left out
as §2

pCH0.6.c/2633 = experiment: MAGI assay, T/F HIV-1 clone pCH0.6.c/2633; settings: Human immunodeficiency virus 1, MAGI
From the text: as §3
as §1, with “A clinical HIV-1 strain, HIV-1KP-5pc, and an MVC-resistant isolate, HIV-1KP-5mvcR, were prepared and used for antiviral assays, as previously described[10],[38].” left out
as §2

pTHRO.c/2626 = experiment: MAGI assay, T/F HIV-1 clone pTHRO.c/2626; settings: Human immunodeficiency virus 1, MAGI
From the text: as §3
as §1, with “A clinical HIV-1 strain, HIV-1KP-5pc, and an MVC-resistant isolate, HIV-1KP-5mvcR, were prepared and used for antiviral assays, as previously described[10],[38].” left out
as §2

pCH058.c/2960 = experiment: MAGI assay, T/F HIV-1 clone pCH058.c/2960; settings: Human immunodeficiency virus 1, MAGI
From the text: as §3
as §1, with “A clinical HIV-1 strain, HIV-1KP-5pc, and an MVC-resistant isolate, HIV-1KP-5mvcR, were prepared and used for antiviral assays, as previously described[10],[38].” left out
as §2

[1] = test system: Transmitter/founder (T/F) HIV-1 viruses; experiment: MAGI assay, all four T/F viruses (range); settings: Human immunodeficiency virus 1, MAGI, read-out: IC50 values (range over four T/F viruses)
From the text: as §3
MAGI-CCR5 cells[18] were maintained in DMEM supplemented with 10% fetal calf serum (FCS: Gemini Bio-Products, West Sacramento, CA), 200 μg/ml G418, 100 μg/ml hygromycin B, and 100 μg/ml zeomycin. The Chinese hamster ovary (CHO) cells expressing CCR5[19] were maintained in Ham’s F-12 medium (GIBCO-BRL, Rockville, MD) supplemented with 10% FCS, 50 U/ml penicillin, and 50 μg/ml streptomycin in the presence of 5 μg/ml blasticidin S hydrochloride. TZM-bl cells were obtained from the NIH AIDS Reagent Program, and were cultured in DMEM with 10% FCS. […]
Antiviral assays using PHA-PBMCs (p24 assay) were conducted as previously reported[16],[38]. […] The amount of p24 antigens produced by the cells was determined on day 7 in the culture via a commercially available ELISA kit (PerkinElmer). […]

HIV-1YU2 = experiment: TZM-bl single-round infection assay, HIV-1YU2; settings: Human immunodeficiency virus 1, YU2, drug-sensitive, mean ± SD
Experimental: as §1, §2

HIV-1KP-5pc = experiment: TZM-bl single-round infection assay, HIV-1KP-5pc; settings: Human immunodeficiency virus 1, TZM-bl
Experimental: as §1, §2

Structure (SMILES): C=CCN(C(=O)OCc1ccc([N+](=O)[O-])cc1)C1CC2CCC(C1)N2CCC(C)(CN(C)S(=O)(=O)c1ccccc1)c1ccccc1 (stereo not drawn) [GRL-117C]
- IC50 (R5-HIV-1Ba-L): 0.6 nM
- IC90 (R5-HIV-1Ba-L): 8.9 nM
- IC50 (R5-HIV-1BaL): 8.1 nM
- IC90 (R5-HIV-1BaL): 48.3 nM
- IC50 (CC1/85 cl.7): 3.5 nM
- IC90 (CC1/85 cl.7): 28.9 nM
- IC50 (pCH040.c/2625): 2 ± 0.6 nM
- IC50 (pCH0.6.c/2633): 1.9 ± 0.3 nM
- IC50 (pTHRO.c/2626): 2.1 ± 0.2 nM
- IC50 (pCH058.c/2960): 3.2 ± 1 nM
- IC50 [1]: 1.9 to 3.2 nM
- IC50 (HIV-1YU2): 68 ± 8.8 nM
- IC90 (HIV-1YU2): > 100 nM
- IC90 (HIV-1KP-5pc): 767 nM
- IC50 (HIV-1KP-5pc; KP-5pc, drug-sensitive clinical strain, TZM-bl assay, mean ± SD): 160 ± 30 nM
